Patent US10150776B2, “Harringtonines salts in the crystalline state and their use for the purification of the corresponding drug substance” (priority 2013, dated 2018)
Where two headings read alike, the source gives them in different places.

Assays:
[1] = Solubility determination in water, semi-quantitative; format: physicochemical
Procedure: Solubility in water at 25° C. was measured semi-quantitatively at a threshold of 5 g per 100 mL. All the homoharringtonine salts described in the below examples, unless otherwise stated, are soluble at this threshold. Homoharringtonine base itself is soluble at a threshold lower than 0.1 g per mL

cancer = test system: cancer; design: key: cytotoxic: CYTOTOXICITY is toxicity to tumor cells in culture; anticancer: ANTINEOPLASTIC or ANTICANCER iare the reserved terms for reportied clinical trials data; settings: in cancer area; terms defined in table footnote; cited from earlier work

COC(=O)C[C@@](O)(CCCC(C)(C)O)C(=O)O[C@@H]1C(OC)=C[C@]23CCCN2CCc2cc4c(cc2[C@H]13)OCO4.O=C(O)C[C@H](O)C(=O)O [Example 3, HOMOHARRINGTONINE HYDROGEN (2S)-MALATE]
solubility ([1]; 25 °C): > 60 mg/mL

COC(=O)C[C@](O)(CCC(C)(C)O)C(=O)O[C@@H]1C(OC)=C[C@]23CCCN2CCc2cc4c(cc2[C@H]13)OCO4 [Example 5a, harringtonine]
Activity (cancer): anticancer

COC(=O)CC(O)(CC(C)(C)O)C(=O)OC1C(OC)=CC23CCCN2CCc2cc4c(cc2C13)OCO4 (stereo not drawn) [Example 5c, norharringtonine]
Activity (cancer): none

COC(=O)C[C@](O)(CCC(C)C)C(=O)O[C@@H]1C(OC)=C[C@]23CCCN2CCc2cc4c(cc2[C@H]13)OCO4 [Example 5d, deoxyharringtonine]
Activity (cancer): anticancer

COC(=O)CC(O)(CCCCC(C)(C)O)C(=O)OC1C(OC)=CC23CCCN2CCc2cc4c(cc2C13)OCO4 (stereo not drawn) [Example 5e, bishomoharringtonine]
Activity (cancer): none

COC(=O)[C@@H](O)[C@](O)(CCC(C)C)C(=O)O[C@@H]1C(OC)=C[C@]23CCCN2CCc2cc4c(cc2[C@H]13)OCO4 [Example 5f, isoharringtonine]
Activity (cancer): none

COC(=O)C[C@](O)(CCCC(C)(C)O)C(=O)O[C@@H]1C(OC)=C[C@]23CCCN2CCc2cc4c(cc2[C@H]13)OCO4 [Homoharringtonine base, homoharringtonine]
Activity (cancer): anticancer | solubility ([1]; 25° C., semi-quantitative, read-out: Solubility in water (threshold)): < 100 mg/mL

neoharringtonine [Example 5g]
Activity (cancer): cytotoxic
